Measured values as given in patent US10485235B2, “Aryloxypyrimidinyl ethers as herbicides” (FMC Corporation, priority 2015, dated 2019).

These compounds were tested on pigweed (Amaranthus retroflexus) (assay: Test A preemergence, pigweed). Conditions: Preemergence, 31 g ai/ha; 0 to 100 scale (0 no effect, 100 complete control).
Format: in vivo
In short: (§1)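 Approximately 10-day greenhouse assay. Formulated chemical (non-phytotoxic solvent plus surfactant) applied preemergence to soil over seeds or postemergence to plants of 2 to 10 cm. Endpoint: visual percent control, 0–100.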

Structure (SMILES) | Plant response rating, Pigweed
Cc1cccc(Oc2ncc(Cl)cn2)c1OCCCC(F)(F)F [Compound 55] | 0

Same assay, conditions: Preemergence, 125 g ai/ha; 0 to 100 scale (0 no effect, 100 complete control)

Structure (SMILES) | Plant response rating, Pigweed
Cc1cccc(Oc2ncc(Cl)cn2)c1OCCCC(F)(F)F [Compound 55] | 50

These compounds were tested on foxtail, giant (giant foxtail, Setaria faberii) (assay: Test A postemergence, giant foxtail). Conditions: 31 g ai/ha, postemergence; 0 to 100 scale, 0 is no effect, 100 is complete control; approximately 10 days.
Format: in vivo
In short: as §1

Structure (SMILES) | Plant response rating, Foxtail, Giant
Cc1cccc(Oc2ncc(Cl)cn2)c1OCCCC(F)(F)F [Compound 55] | 20

Same assay, conditions: 125 g ai/ha, postemergence; 0 to 100 scale, 0 is no effect, 100 is complete control; approximately 10 days

Structure (SMILES) | Plant response rating, Foxtail, Giant
Cc1cccc(Oc2ncc(Cl)cn2)c1OCCCC(F)(F)F [Compound 55] | 60

What follows are compounds tested on barnyardgrass (Echinochloa crus-galli) (assay: Test A preemergence, barnyardgrass). Conditions: Preemergence, 31 g ai/ha; 0 to 100 scale (0 no effect, 100 complete control).
Format: in vivo
In short: as §1

Structure (SMILES) | Plant response rating, Barnyardgrass
Cc1cccc(Oc2ncc(Cl)cn2)c1OCCCC(F)(F)F [Compound 55] | 10

Same assay, conditions: Preemergence, 125 g ai/ha; 0 to 100 scale (0 no effect, 100 complete control)

Structure (SMILES) | Plant response rating, Barnyardgrass
Cc1cccc(Oc2ncc(Cl)cn2)c1OCCCC(F)(F)F [Compound 55] | 70

The compounds below were run on ducksalad (Heteranthera limosa) (assay: Test B flooded paddy test, ducksalad). Conditions: 250 g ai/ha, Flood; visual rating after 13 to 15 days; scale 0 to 100, 0 is no effect, 100 is complete control.
Format: in vivo
In short: (§2)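 Visual ratings, 0 = no effect to 100 = complete control, versus controls after 13 to 15 days in greenhouse. Test compounds were added to paddy water kept 3 cm over the soil surface, on plants at 2-leaf stage.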

Structure (SMILES) | Plant response rating, Ducksalad
Cc1cccc(Oc2ncc(Cl)cn2)c1OCCCC(F)(F)F [Compound 55] | 100

What follows are compounds tested on kochia (Kochia scoparia) (assay: Test A postemergence, kochia). Conditions: 31 g ai/ha, postemergence; 0 to 100 scale, 0 is no effect, 100 is complete control; approximately 10 days.
Format: in vivo
In short: as §1

Structure (SMILES) | Plant response rating, Kochia
Cc1cccc(Oc2ncc(Cl)cn2)c1OCCCC(F)(F)F [Compound 55] | 10

Same assay, conditions: 125 g ai/ha, postemergence; 0 to 100 scale, 0 is no effect, 100 is complete control; approximately 10 days

Structure (SMILES) | Plant response rating, Kochia
Cc1cccc(Oc2ncc(Cl)cn2)c1OCCCC(F)(F)F [Compound 55] | 20

What follows are compounds tested on barnyardgrass (Echinochloa crus-galli) (assay: Test A postemergence, barnyardgrass). Conditions: 31 g ai/ha, postemergence; 0 to 100 scale, 0 is no effect, 100 is complete control; approximately 10 days.
Format: in vivo
In short: as §1

Structure (SMILES) | Plant response rating, Barnyardgrass
Cc1cccc(Oc2ncc(Cl)cn2)c1OCCCC(F)(F)F [Compound 55] | 10

Same assay, conditions: 125 g ai/ha, postemergence; 0 to 100 scale, 0 is no effect, 100 is complete control; approximately 10 days

Structure (SMILES) | Plant response rating, Barnyardgrass
Cc1cccc(Oc2ncc(Cl)cn2)c1OCCCC(F)(F)F [Compound 55] | 20

The compounds below were run on galium (catchweed bedstraw, Galium aparine) (assay: Test A postemergence, galium). Conditions: 31 g ai/ha, postemergence; 0 to 100 scale, 0 is no effect, 100 is complete control; approximately 10 days.
Format: in vivo
In short: as §1

Structure (SMILES) | Plant response rating, Galium
Cc1cccc(Oc2ncc(Cl)cn2)c1OCCCC(F)(F)F [Compound 55] | 0

Same assay, conditions: 125 g ai/ha, postemergence; 0 to 100 scale, 0 is no effect, 100 is complete control; approximately 10 days

Structure (SMILES) | Plant response rating, Galium
Cc1cccc(Oc2ncc(Cl)cn2)c1OCCCC(F)(F)F [Compound 55] | 20

These compounds were tested on kochia (Kochia scoparia) (assay: Test A preemergence, kochia). Conditions: Preemergence, 31 g ai/ha; 0 to 100 scale (0 no effect, 100 complete control).
Format: in vivo
In short: as §1

Structure (SMILES) | Plant response rating, Kochia
Cc1cccc(Oc2ncc(Cl)cn2)c1OCCCC(F)(F)F [Compound 55] | 0

Same assay, conditions: Preemergence, 125 g ai/ha; 0 to 100 scale (0 no effect, 100 complete control)

Structure (SMILES) | Plant response rating, Kochia
Cc1cccc(Oc2ncc(Cl)cn2)c1OCCCC(F)(F)F [Compound 55] | 60

The compounds below were run on foxtail, giant (giant foxtail, Setaria faberii) (assay: Test A preemergence, giant foxtail). Conditions: Preemergence, 31 g ai/ha; 0 to 100 scale (0 no effect, 100 complete control).
Format: in vivo
In short: as §1

Structure (SMILES) | Plant response rating, Foxtail, Giant
Cc1cccc(Oc2ncc(Cl)cn2)c1OCCCC(F)(F)F [Compound 55] | 10

Same assay, conditions: Preemergence, 125 g ai/ha; 0 to 100 scale (0 no effect, 100 complete control)

Structure (SMILES) | Plant response rating, Foxtail, Giant
Cc1cccc(Oc2ncc(Cl)cn2)c1OCCCC(F)(F)F [Compound 55] | 80

Each compound was assayed on barnyardgrass (Echinochloa crus-galli) (assay: Test B flooded paddy test, barnyardgrass). Conditions: 250 g ai/ha, Flood; visual rating after 13 to 15 days; scale 0 to 100, 0 is no effect, 100 is complete control.
Format: in vivo
In short: as §2

Structure (SMILES) | Plant response rating, Barnyardgrass
Cc1cccc(Oc2ncc(Cl)cn2)c1OCCCC(F)(F)F [Compound 55] | 40

Each compound was assayed on ryegrass, Italian (Italian ryegrass, Lolium multiflorum) (assay: Test A postemergence, Italian ryegrass). Conditions: 31 g ai/ha, postemergence; 0 to 100 scale, 0 is no effect, 100 is complete control; approximately 10 days.
Format: in vivo
In short: as §1

Structure (SMILES) | Plant response rating, Ryegrass, Italian
Cc1cccc(Oc2ncc(Cl)cn2)c1OCCCC(F)(F)F [Compound 55] | 0

Same assay, conditions: 125 g ai/ha, postemergence; 0 to 100 scale, 0 is no effect, 100 is complete control; approximately 10 days

Structure (SMILES) | Plant response rating, Ryegrass, Italian
Cc1cccc(Oc2ncc(Cl)cn2)c1OCCCC(F)(F)F [Compound 55] | 20

The compounds below were run on blackgrass (Alopecurus myosuroides) (assay: Test A postemergence, blackgrass). Conditions: 31 g ai/ha, postemergence; 0 to 100 scale, 0 is no effect, 100 is complete control; approximately 10 days.
Format: in vivo
In short: as §1

Structure (SMILES) | Plant response rating, Blackgrass
Cc1cccc(Oc2ncc(Cl)cn2)c1OCCCC(F)(F)F [Compound 55] | 0

Same assay, conditions: 125 g ai/ha, postemergence; 0 to 100 scale, 0 is no effect, 100 is complete control; approximately 10 days

Structure (SMILES) | Plant response rating, Blackgrass
Cc1cccc(Oc2ncc(Cl)cn2)c1OCCCC(F)(F)F [Compound 55] | 20

What follows are compounds tested on ragweed (common ragweed, Ambrosia elatior) (assay: Test A preemergence, ragweed). Conditions: Preemergence, 31 g ai/ha; 0 to 100 scale (0 no effect, 100 complete control).
Format: in vivo
In short: as §1

Structure (SMILES) | Plant response rating, Ragweed
Cc1cccc(Oc2ncc(Cl)cn2)c1OCCCC(F)(F)F [Compound 55] | 0

Same assay, conditions: Preemergence, 125 g ai/ha; 0 to 100 scale (0 no effect, 100 complete control)

Structure (SMILES) | Plant response rating, Ragweed
Cc1cccc(Oc2ncc(Cl)cn2)c1OCCCC(F)(F)F [Compound 55] | 0

What follows are compounds tested on sedge, umbrella (small-flower umbrella sedge, Cyperus difformis) (assay: Test B flooded paddy test, umbrella sedge). Conditions: 250 g ai/ha, Flood; visual rating after 13 to 15 days; scale 0 to 100, 0 is no effect, 100 is complete control.
Format: in vivo
In short: as §2

Structure (SMILES) | Plant response rating, Sedge, Umbrella
Cc1cccc(Oc2ncc(Cl)cn2)c1OCCCC(F)(F)F [Compound 55] | 95

The compounds below were run on ragweed (common ragweed, Ambrosia elatior) (assay: Test A postemergence, ragweed). Conditions: 31 g ai/ha, postemergence; 0 to 100 scale, 0 is no effect, 100 is complete control; approximately 10 days.
Format: in vivo
In short: as §1

Structure (SMILES) | Plant response rating, Ragweed
Cc1cccc(Oc2ncc(Cl)cn2)c1OCCCC(F)(F)F [Compound 55] | 0

Same assay, conditions: 125 g ai/ha, postemergence; 0 to 100 scale, 0 is no effect, 100 is complete control; approximately 10 days

Structure (SMILES) | Plant response rating, Ragweed
Cc1cccc(Oc2ncc(Cl)cn2)c1OCCCC(F)(F)F [Compound 55] | 0

The compounds below were run on rice (Oryza sativa) (assay: Test B flooded paddy test, rice). Conditions: 250 g ai/ha, Flood; visual rating after 13 to 15 days; scale 0 to 100, 0 is no effect, 100 is complete control.
Format: in vivo
In short: as §2

Structure (SMILES) | Plant response rating, Rice
Cc1cccc(Oc2ncc(Cl)cn2)c1OCCCC(F)(F)F [Compound 55] | 45

These compounds were tested on corn (Zea mays) (assay: Test A postemergence, corn). Conditions: 31 g ai/ha, postemergence; 0 to 100 scale, 0 is no effect, 100 is complete control; approximately 10 days.
Format: in vivo
In short: as §1

Structure (SMILES) | Plant response rating, Corn
Cc1cccc(Oc2ncc(Cl)cn2)c1OCCCC(F)(F)F [Compound 55] | 0

Same assay, conditions: 125 g ai/ha, postemergence; 0 to 100 scale, 0 is no effect, 100 is complete control; approximately 10 days

Structure (SMILES) | Plant response rating, Corn
Cc1cccc(Oc2ncc(Cl)cn2)c1OCCCC(F)(F)F [Compound 55] | 20

What follows are compounds tested on ryegrass, Italian (Italian ryegrass, Lolium multiflorum) (assay: Test A preemergence, Italian ryegrass). Conditions: Preemergence, 31 g ai/ha; 0 to 100 scale (0 no effect, 100 complete control).
Format: in vivo
In short: as §1

Structure (SMILES) | Plant response rating, Ryegrass, Italian
Cc1cccc(Oc2ncc(Cl)cn2)c1OCCCC(F)(F)F [Compound 55] | 0

Same assay, conditions: Preemergence, 125 g ai/ha; 0 to 100 scale (0 no effect, 100 complete control)

Structure (SMILES) | Plant response rating, Ryegrass, Italian
Cc1cccc(Oc2ncc(Cl)cn2)c1OCCCC(F)(F)F [Compound 55] | 10

Each compound was assayed on pigweed (Amaranthus retroflexus) (assay: Test A postemergence, pigweed). Conditions: 31 g ai/ha, postemergence; 0 to 100 scale, 0 is no effect, 100 is complete control; approximately 10 days.
Format: in vivo
In short: as §1

Structure (SMILES) | Plant response rating, Pigweed
Cc1cccc(Oc2ncc(Cl)cn2)c1OCCCC(F)(F)F [Compound 55] | 10

Same assay, conditions: 125 g ai/ha, postemergence; 0 to 100 scale, 0 is no effect, 100 is complete control; approximately 10 days

Structure (SMILES) | Plant response rating, Pigweed
Cc1cccc(Oc2ncc(Cl)cn2)c1OCCCC(F)(F)F [Compound 55] | 30

Each compound was assayed on wheat (Triticum aestivum) (assay: Test A postemergence, wheat). Conditions: 31 g ai/ha, postemergence; 0 to 100 scale, 0 is no effect, 100 is complete control; approximately 10 days.
Format: in vivo
In short: as §1

Structure (SMILES) | Plant response rating, Wheat
Cc1cccc(Oc2ncc(Cl)cn2)c1OCCCC(F)(F)F [Compound 55] | 0

Same assay, conditions: 125 g ai/ha, postemergence; 0 to 100 scale, 0 is no effect, 100 is complete control; approximately 10 days

Structure (SMILES) | Plant response rating, Wheat
Cc1cccc(Oc2ncc(Cl)cn2)c1OCCCC(F)(F)F [Compound 55] | 0
